According to PubChem BioAssay (NCI):
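96-well plates; 48 h exposure; 5 concentrations. Endpoints by linear interpolation between flanking doses. Not reached: highest tested concentration assigned. TGI is the concentration that stops growth completely.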

Tests used:
Assay in all cases: NCI tumour cell line growth inhibition, 48 h
A549 NSCLC = tested on: A549 NSCLC
ACHN renal = tested on: ACHN renal
BT-549 breast = tested on: BT-549 breast
HCC-2998 colon = tested on: HCC-2998 colon
HCT-116 colon = tested on: HCT-116 colon
HS 578T breast = tested on: HS 578T breast
IGROV1 ovarian = tested on: IGROV1 ovarian
OVCAR-8 ovarian = tested on: OVCAR-8 ovarian
RPMI-8226 leukemia = tested on: RPMI-8226 leukemia
SK-MEL-5 melanoma = tested on: SK-MEL-5 melanoma
U251 CNS = tested on: U251 CNS

SMILES | TGI (A549 NSCLC) | TGI (ACHN renal) | TGI (BT-549 breast) | TGI (HCC-2998 colon) | TGI (HCT-116 colon) | TGI (HS 578T breast) | TGI (IGROV1 ovarian) | TGI (OVCAR-8 ovarian) | TGI (RPMI-8226 leukemia) | TGI (SK-MEL-5 melanoma) | TGI (U251 CNS)
CN(C)c1ccc(C(=C2C=CC(=[N+](C)C)C=C2)c2c(O)c(S(=O)(=O)[O-])cc3cc(S(=O)(=O)O)ccc23)cc1 | > 100 µM | > 100 µM | > 100 µM | > 100 µM | > 100 µM | > 100 µM | > 100 µM | > 100 µM | > 100 µM | > 100 µM | > 100 µM
Brc1ccc2c(c1)[C@H]1CCc3c([nH]c4ccccc34)[C@H]1N2 | 47.4 µM | 25 µM | 34.7 µM | 25.5 µM | 21 µM | 46.5 µM | 15.6 µM | 27.4 µM | 23.2 µM | 12.1 µM | 21.7 µM
CCCCc1ccc(Nc2nc(N)c3[nH]cnc3n2)cc1 | 79.4 µM | 35.5 µM | 47.9 µM | 46.4 µM | 32.3 µM | 41.6 µM | 27.9 µM | 31.8 µM | 77.5 µM | 30.9 µM | 48 µM
CC(C)=CCC[C@@H](C)c1c(O)c(O)c(C)c2nc3ccccc3nc12 | 9.15 µM | 5.64 µM | 17.1 µM | 22.2 µM | 12.2 µM | 8.37 µM | 10.7 µM | 24.2 µM | > 20.2 µM | 10.6 µM | 22.8 µM
O=c1[nH]/c(=C/c2cccs2)c(=O)[nH]/c1=C/c1ccc(OCc2ccccc2)cn1 | > 55.9 µM | > 100 µM | 3.75 µM | 0.853 µM | > 100 µM | 0.204 µM | > 100 µM | 65.4 µM | > 43.2 µM | > 62.6 µM | 23.8 µM
O=C1NC(N2CCOCC2)=N/C1=C\c1ccccc1 | > 100 µM | > 100 µM | > 100 µM | > 100 µM | > 100 µM | > 100 µM | > 100 µM | > 100 µM | > 100 µM | > 100 µM | > 100 µM
CC1CN=C(c2ccc3c(c2)Cc2cc(C4=NCC(C)N4)ccc2-3)N1 (stereo not given) | > 100 µM | > 100 µM | > 100 µM | 39.2 µM | > 100 µM | > 100 µM | > 100 µM | > 100 µM | 98.7 µM | > 100 µM | 46.7 µM
CO/C=C(/C(=O)OC)c1ccccc1[C@H]1C[C@@H]1c1ccc(OC)cc1 | 65.6 µM | 74.2 µM | 46.6 µM | 42.7 µM | 44.5 µM | 84.5 µM | 45.5 µM | > 100 µM | 58.5 µM | 26.2 µM | > 100 µM
O=C1CCCc2ccc3c(c21)CC1(Cc2cc4c(cc2C1)CCCC4)C3 | > 100 µM | 30 µM | 72.6 µM | > 100 µM | 34.6 µM | 81.4 µM | 54.6 µM | 47.4 µM | 35.5 µM | 26.2 µM | 44.4 µM
Cc1cc(S(=O)(=O)Nc2nc(N)n(-c3ccccc3)n2)c(S)cc1Cl | > 100 µM | > 100 µM | > 100 µM | > 100 µM | > 100 µM | > 100 µM | > 100 µM | > 100 µM | > 100 µM | > 100 µM | > 100 µM
O=C(O)CC(Cc1ccccc1)C(=O)O (stereo not given) | > 100 µM | > 100 µM | > 100 µM | > 100 µM | > 100 µM | > 100 µM | > 100 µM | > 100 µM | > 100 µM | > 100 µM | > 100 µM
COc1c2c(cc3oc(=O)ccc13)OC(C)(C)C=C2 | > 125 µM | 70 µM | 70.2 µM | 46.3 µM | 40.8 µM | > 125 µM | 75.7 µM | 75.1 µM | 87.6 µM | 41.8 µM | 78.5 µM
Cc1cc(C)c2c(=O)n(CC(O)CN3CCN(c4ncccn4)CC3)sc2n1 (stereo not given) | 31.2 µM | 32.4 µM | 32.3 µM | 32.9 µM | 29 µM | 42.8 µM | > 100 µM | 38.2 µM | 44 µM | 35.5 µM | 31.7 µM
Cc1cc2nc(N)n[n+]([O-])c2cc1C | > 100 µM | > 100 µM | > 100 µM | > 100 µM | > 100 µM | > 100 µM | > 100 µM | > 100 µM | > 100 µM | > 100 µM | > 100 µM
O=C(NC12CC3CC(CC(C3)C1)C2)n1cnc2cncnc21 | > 100 µM | > 100 µM | > 100 µM | > 100 µM | > 100 µM | > 100 µM | 98 µM | > 100 µM | 79.4 µM | 30.6 µM | > 100 µM
